Structures can show the parent of a compound that is named as a salt.

Chain of SHP2 (Q06124 whole entry): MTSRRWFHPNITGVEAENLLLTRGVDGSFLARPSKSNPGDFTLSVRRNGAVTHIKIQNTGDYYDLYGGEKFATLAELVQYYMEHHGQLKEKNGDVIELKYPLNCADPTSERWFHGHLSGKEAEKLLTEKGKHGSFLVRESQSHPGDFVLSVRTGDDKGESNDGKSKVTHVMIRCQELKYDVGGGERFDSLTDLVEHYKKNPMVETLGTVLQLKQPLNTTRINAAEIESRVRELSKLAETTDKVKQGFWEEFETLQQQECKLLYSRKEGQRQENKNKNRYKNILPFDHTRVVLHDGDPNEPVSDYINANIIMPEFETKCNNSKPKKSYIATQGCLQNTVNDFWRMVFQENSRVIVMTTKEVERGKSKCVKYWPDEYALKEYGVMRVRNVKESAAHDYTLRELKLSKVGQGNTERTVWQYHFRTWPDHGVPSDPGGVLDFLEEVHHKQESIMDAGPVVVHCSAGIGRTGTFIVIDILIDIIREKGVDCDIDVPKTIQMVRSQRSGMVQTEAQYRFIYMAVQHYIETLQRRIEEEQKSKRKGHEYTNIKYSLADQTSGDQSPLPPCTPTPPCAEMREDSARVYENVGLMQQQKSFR

The target of the first assay is SHP2 (Homo sapiens (Human), UniProt Q06124). Put plainly: SHP2 Biochemical Assay (DiFMUP conversion, pIRS1-activated). The settings on record: Table 19; head prints unit as "-M". The protocol:
SHP2 activity was monitored by measuring the conversion of the surrogate substrate 6,8-difluoromethylumbelliferyl phosphate (DiFMUP) to the fluorescent product, 6,8-difluoromethylumbelliferone (DiFMU).
SHP2 was pre-incubated with test compounds and the activating peptide pIRS1 (H2N-LN(pY)IDLDLV-(PEG)8-LST(pY)ASINFQK-amide) for 30 min, prior to addition of the 6,8-difluoromethylumbelliferyl phosphate (DiFMUP), (Thermo Fisher D6567). Final assay concentrations were 10 pM SHP2, […] pIRS1 peptide, 50 μM DiFMUP, 25 mM Bis-Tris propane, pH 7.0, 150 mM NaCl, 0.05% (v/v) Tween-20, 0.5 mM TCEP and 5% (v/v) DMSO. Rates of reaction were then measured over 30 min by monitoring fluorescence on a BMG Pherastar reader at excitation 360 nm/emission 450 nm. IC50 values were calculated in singlicate from the normalized dose-response plots using four parameter logistic curve fit. The Experiment for each compound was carried out in one time or multiple times, and the IC50 values were shown as a single value (for a compound measured in a single experiment) or an average value (for a compound measured in multiple experiments).
For `Cn1cc2c(Cl)c(-c3c[nH]c4nc(N5CCN[C@H](CCO)C5)n(C)c(=O)c34)ccc2n1` [Example 20, (R)-5-(4-chloro-2-methyl-2H-indazol-5-yl)-2-(3-(2-hydroxyethyl)piperazin-1-yl)-3-methyl-3,7-dihydro-4H-pyrrolo[2,3-d]pyrimidin-4-one], the midpoint of inhibition, the IC50, lay at 760 nM.

On to `Cn1cc2c(Cl)c(-c3n[nH]c4nc(N5CC6COCC(C5)N6)n(C)c(=O)c34)ccc2n1` [Example 145, 3-(4-chloro-2-methyl-2H-indazol-5-yl)-5-methyl-6-{3-oxa-7,9-diazabicyclo[3.3.1]nonan-7-yl}-1H,4H,5H-pyrazolo[3,4-d]pyrimidin-4-one], for which the IC50 (commonly the midpoint of a concentration-inhibition curve) came to 150 nM.

Take `Cn1cc2c(Cl)c(-c3c[nH]c4nc(N5CCN[C@H](CO)C5)n(C)c(=O)c34)ccc2n1` [Example 19, (S)-5-(4-chloro-2-methyl-2H-indazol-5-yl)-2-(3-(hydroxymethyl)piperazin-1-yl)-3-methyl-3,7-dihydro-4H-pyrrolo[2,3-d]pyrimidin-4-one]: half-maximal inhibition (IC50) was put at 350 nM.

With `Cn1cc2c(Cl)c(-c3c[nH]c4nc(N5CCC6(CCN6)CC5)n(C)c(=O)c34)ccc2n1` [Example 42, 5-(4-chloro-2-methyl-2H-indazol-5-yl)-3-methyl-2-(1,7-diazaspiro[3.5]nonan-7-yl)-3,7-dihydro-4H-pyrrolo[2,3-d]pyrimidin-4-one], the IC50 was 78 nM.

Turning to `C[C@@H]1CN(c2nc3[nH]cc(-c4ccc5nn(C)cc5c4Cl)c3c(=O)n2C)CCN1` [Example 18, (R)-5-(4-chloro-2-methyl-2H-indazol-5-yl)-3-methyl-2-(3-methylpiperazin-1-yl)-3,7-dihydro-4H-pyrrolo[2,3-d]pyrimidin-4-one], the IC50 worked out at 230 nM.

Compound `Cn1cc2c(Cl)c(-c3n[nH]c4nc(N5[C@@H]6CC[C@H]5[C@H](F)[C@@H](N)C6)n(C)c(=O)c34)ccc2n1` [Example 149, 6-[(1S,2R,3S,5R)-3-Amino-2-fluoro-8-azabicyclo[3.2.1]octan-8-yl]-3-(4-chloro-2-methyl-2H-indazol-5-yl)-5-methyl-1H,4H,5H-pyrazolo[3,4-d]pyrimidin-4-one] showed an IC50 of 290 nM.

In turn, `CCn1cc2c(Cl)c(-c3c[nH]c4nc(N5C[C@H]6CC[C@@H]5[C@@H]6N)n(C)c(=O)c34)ccc2n1` (stereo in doubt) [Example 155, rel-2-((1R,4R,7R)-7-amino-2-azabicyclo[2.2.1]heptan-2-yl)-5-(4-chloro-2-ethyl-2H-indazol-5-yl)-3-methyl-3,7-dihydro-4H-pyrrolo[2,3-d]pyrimidin-4-one] showed a half-inhibitory concentration (IC50) of 4 nM.

The same assay, now with this note: Table 20.
As for `Cn1nc2c(Cl)cc(-c3c[nH]c4nc(N5[C@H]6CC[C@@H]5[C@@H](N)C6)n(C)c(=O)c34)c(Cl)c2c1Cl` [Example 168, 2-((1R,2S,4S)-2-amino-7-azabicyclo[2.2.1]heptan-7-yl)-3-methyl-5-(3,4,7-trichloro-2-methyl-2H-indazol-5-yl)-3,7-dihydro-4H-pyrrolo[2,3-d]pyrimidin-4-one], the IC50 amounted to 7 nM.

`CCn1cc2cc(-c3c[nH]c4nc(N5CCC6(CC5)COC[C@H]6N)n(C)c(=O)c34)cc(F)c2n1` [Example 186, 2-[(4S)-4-amino-2-oxa-8-azaspiro[4.5]decan-8-yl]-5-(2-ethyl-7-fluoro-2H-indazol-5-yl)-3-methyl-3H,4H,7H-pyrrolo[2,3-d]pyrimidin-4-one hydrochloride] came in with an IC50 of 36 nM.

In turn, `Cn1nc2ccc(-c3c[nH]c4nc(N5[C@H]6CC[C@@H]5[C@H](N)C6)n(C)c(=O)c34)cc2c1Cl` [Example 167, 2-((1R,2R,4S)-2-amino-7-azabicyclo[2.2.1]heptan-7-yl)-5-(3-chloro-2-methyl-2H-indazol-5-yl)-3-methyl-3,7-dihydro-4H-pyrrolo[2,3-d]pyrimidin-4-one] returned an IC50 of 13 nM.

Turning to `CCn1cc2ccc(-c3c[nH]c4nc(N5CCC6(CC5)COC[C@H]6N)n(C)c(=O)c34)cc2n1` [Example 183, 2-[(4S)-4-amino-2-oxa-8-azaspiro[4.5]decan-8-yl]-5-(2-ethyl-2H-indazol-6-yl)-3-methyl-3H,4H,7H-pyrrolo[2,3-d]pyrimidin-4-one hydrochloride], it took 140 nM to reach half-maximal inhibition (IC50).

`CCn1cc2c(Cl)c(-c3c[nH]c4nc(N5CCC6(CNC6)C5)n(C)c(=O)c34)ccc2n1` (racemic) [Example 196, rac-5-(4-chloro-2-ethyl-2H-indazol-5-yl)-2-{2,6-diazaspiro[3.4]octan-6-yl}-3-methyl-3H,4H,7H-pyrrolo[2,3-d]pyrimidin-4-one] came in with an IC50 of 32 nM.

On to `CCn1cc2c(Cl)c(-c3c[nH]c4nc(N5CC6CNCC5C6)n(C)c(=O)c34)ccc2n1` (single isomer, unassigned) [Example 193, 5-(4-chloro-2-ethyl-2H-indazol-5-yl)-2-{3,6-diazabicyclo[3.2.1]octan-6-yl}-3-methyl-3H,4H,7H-pyrrolo[2,3-d]pyrimidin-4-one hydrochloride], for which the IC50 is 260 nM.

`Cn1cc2c(Cl)c(-c3c[nH]c4nc(N5[C@@H]6CC[C@H]5C[C@](N)(C(F)F)C6)n(C)c(=O)c34)ccc2n1` [Example 185, 2-[(endo)-3-amino-3-(difluoromethyl)-8-azabicyclo[3.2.1]octan-8-yl]-5-(4-chloro-2-methyl-2H-indazol-5-yl)-3-methyl-3H,4H,7H-pyrrolo[2,3-d]pyrimidin-4-one hydrochloride]: half-maximal inhibition (IC50) was put at 180 nM.

In the case of `Cn1nc2ccc(-c3c[nH]c4nc(N5[C@H]6CC[C@@H]5[C@@H](N)C6)n(C)c(=O)c34)c(Cl)c2c1Cl` [Example 166, 2-((1R,2S,4S)-2-amino-7-azabicyclo[2.2.1]heptan-7-yl)-5-(3,4-dichloro-2-methyl-2H-indazol-5-yl)-3-methyl-3,7-dihydro-4H-pyrrolo[2,3-d]pyrimidin-4-one], inhibition was half-maximal at 53 nM (IC50).

A further assay deals with pERK (phospho-p44/42 ERK) in HCC827 cells. Briefly: Cellular pERK Inhibition Assay, Method A (In-Cell Western). Particulars: Homo sapiens, Table 19, head prints unit as "-M", read-out: pERK (IC50) Method A. It is filed as cell-based. The procedure: Cellular pERK Inhibition Assay
pERK levels were determined using the In-Cell Western assay. HCC827 cells (ATCC, Manassas, USA) were seeded into 384-well plates at a density of 1×10^4 cells/well in RPMI1640 medium supplemented with 10% FBS and incubated 24h. Compounds were diluted first in DMSO and then into serum-free medium, before being added to cells in quadruplicate to give a final concentration of 0.2% DMSO. Plates were incubated at 37° C. for the indicated time in a humidified atmosphere of 5% CO2 in air.
Following compound treatment, cells were fixed with formalin neutral buffer solution for 20 minutes at room temperature. Plates were washed three times with 0.1% Triton-X in PBS and cells were blocked for 1 hour with Odyssey blocking buffer (LI-COR, #927-40000). After shaking out blocking buffer, cells were incubated with phospho-p44/42 ERK antibody (Cell Signalling Technology, #4370, 1:200) diluted in Odyssey blocking buffer at 4° C. overnight. Plates were washed again and cells were incubated for 1 hour with Goat anti-Rabbit […] (LI-COR, #926-32211, 1:800) diluted in Odyssey blocking buffer. After washing and removing wash solution completely using a centrifuge machine, cells were scanned on the Odyssey (LI-COR), following the manufacturer's instructions. The average signal from blank wells (no cells added) was subtracted from the signals from each sample well. Levels of pERK were then expressed as percent of control, using DMSO treated samples as control. The relative IC50 values were calculated in quadruplicate from the normalized dose-response plots using four parameter logistic curve fit. The Experiment for each compound was carried out in one time or multiple times, and the IC50 values were shown as a single value (for a compound measured in a single experiment) or an average value (for a compound measured in multiple experiments).
As for `Cn1nc2ccc(-c3c[nH]c4nc(N5[C@H]6CC[C@@H]5[C@H](N)C6)n(C)c(=O)c34)c(F)c2c1Cl` [Example 96, 2-((1R,2R,4S)-2-amino-7-azabicyclo[2.2.1]heptan-7-yl)-5-(3-chloro-4-fluoro-2-methyl-2H-indazol-5-yl)-3-methyl-3,7-dihydro-4H-pyrrolo[2,3-d]pyrimidin-4-one], the IC50 was determined as 0.03 µM.

For `CCn1cc2c(Cl)c(-c3c[nH]c4nc(N5[C@H]6CC[C@@H]5[C@H](N)C6)n(C)c(=O)c34)ccc2n1` [Example 92, 2-((1R,2R,4S)-2-amino-7-azabicyclo[2.2.1]heptan-7-yl)-5-(4-chloro-2-ethyl-2H-indazol-5-yl)-3-methyl-3,7-dihydro-4H-pyrrolo[2,3-d]pyrimidin-4-one], the IC50 amounted to 0.032 µM.

As for `Cn1nc2ccc(-c3c[nH]c4nc(N5[C@H]6CC[C@@H]5[C@H](N)C6)n(C)c(=O)c34)c(Cl)c2c1Cl` [Example 93, 2-((1R,2R,4S)-2-amino-7-azabicyclo[2.2.1]heptan-7-yl)-5-(3,4-dichloro-2-methyl-2H-indazol-5-yl)-3-methyl-3,7-dihydro-4H-pyrrolo[2,3-d]pyrimidin-4-one], the IC50 stood at 0.021 µM.

Consider `Cn1c(N2[C@H]3CC[C@@H]2[C@H](N)C3)nc2[nH]cc(-c3ccc4ncsc4c3Cl)c2c1=O` [Example 101, 2-((1R,2R,4S)-2-amino-7-azabicyclo[2.2.1]heptan-7-yl)-5-(7-chlorobenzo[d]thiazol-6-yl)-3-methyl-3,7-dihydro-4H-pyrrolo[2,3-d]pyrimidin-4-one], for which the IC50 was 0.046 µM.

The assay is the same for the next values; noted with them: Homo sapiens, Table 20, read-out: pERK (IC50, μM) Method A.
Turning to `Cn1nc2ccc(-c3n[nH]c4nc(N5C[C@H]6CC[C@@H]5[C@@H]6N)n(C)c(=O)c34)c(Cl)c2c1Cl` [Example 171, 6-((1R,4R,7R)-7-amino-2-azabicyclo[2.2.1]heptan-2-yl)-3-(3,4-dichloro-2-methyl-2H-indazol-5-yl)-5-methyl-1,5-dihydro-4H-pyrazolo[3,4-d]pyrimidin-4-one], the IC50 was 0.02 µM.

With `Cn1nc2ccc(-c3c[nH]c4nc(N5C[C@H]6CC[C@@H]5[C@@H]6N)n(C)c(=O)c34)c(Cl)c2c1Cl` [Example 172, 2-((1R,4R,7R)-7-amino-2-azabicyclo[2.2.1]heptan-2-yl)-5-(3,4-dichloro-2-methyl-2H-indazol-5-yl)-3-methyl-3,7-dihydro-4H-pyrrolo[2,3-d]pyrimidin-4-one], the IC50 was found to be 0.016 µM.
